Results taken from patent US12220412B2, “Methods for administering corticosteroids” (Sparrow Pharmaceuticals, Inc., priority 2018, dated 2025).

Legend:
[1] = molecular target: HSD-1 (Homo sapiens, UniProt P28845); test: Urinary (tetrahydrocortisol+allotetrahydrocortisol)/tetrahydrocortisone ratio as indicator of HSD-1 activity in clinical trial subjects; assay type: in vivo; design: from tissue; host or cells: in vivo, human subjects; conditions: for mean HSD-1 ratio (significantly decreased HSD-1 activity): both days 1 and 18
HSD-1, sequence (P28845 whole entry): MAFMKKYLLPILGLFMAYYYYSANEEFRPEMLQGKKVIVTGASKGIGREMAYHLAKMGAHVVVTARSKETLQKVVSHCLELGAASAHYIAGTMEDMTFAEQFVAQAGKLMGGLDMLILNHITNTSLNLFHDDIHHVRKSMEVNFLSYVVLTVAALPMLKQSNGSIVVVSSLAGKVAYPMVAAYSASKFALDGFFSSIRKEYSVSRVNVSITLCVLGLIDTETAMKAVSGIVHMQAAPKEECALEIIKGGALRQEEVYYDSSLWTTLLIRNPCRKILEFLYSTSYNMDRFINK
Experimental: Following a minimum of a 10-hour fast, healthy adult racially diverse male and female subjects were administered Compound A (ASP3662) or placebo for Compound A with 240 mL of room temperature water. Subjects continued to fast from any food and drinks (water was allowed as desired except for 1 hour before and 1 hour after study drug administration) until 4 hours after study drug administration. Urine samples were collected for the measurement of cortisol, cortisone, tetrahydrocortisol (5α, 5β) and tetrahydrocortisone. The cumulative amount of each entity excreted in the urine was calculated for each subject from time zero to 24 hours after dosing (Ae24), from 24 hours after dosing to 48 hours after dosing (Ae48), and Aelast.
The ratio of 5α-tetrahydrocortisol+5β-tetrahydrocortisol to urinary tetrahydrocortisone was used as an indicator of HSD-1 activity. Compound A decreased the 5α-tetrahydrocortisol+5β-tetrahydrocortisol to urinary tetrahydrocortisone ratio with increasing dose compared to placebo, resulting in approximately 80% inhibition at 6 mg. […]

[2] = test system: mice; test: Corticosterone-induced deficit of Y-maze exploration (alternation rate); assay type: in vivo; conditions: single doses of 0.3 to 3 mg/kg
Excerpt: (a) no CS; (b)-(f) CS; dosage of Compound A (mg/kg): (b) 0; (c) 0.01; (d) 0.03; (e) 1; (f) 3.
Mice typically prefer to explore the novel arm of a Y-maze, a behavior considered indicative of short-term memory. Corticosterone (CS) decreases the percentage of times mice enter the novel arm of a Y maze, and so is considered to have a negative cognitive effect.

[3] = test system: Adults with painful diabetic peripheral neuropathy; test: 6-week randomized trial in adults with painful diabetic peripheral neuropathy (pain relief, glycemic control, lipids, blood pressure, weight); assay type: in vivo, human; design: Weight / HbA1c (%) / Plasma glucose / Urine glucose (% positive) / Cholesterol / Triglycerides / Systolic BP (mm Hg) / Diastolic BP (mm Hg): reference not given here
Experimental: Adults with painful diabetic peripheral neuropathy were randomized to treatment with SPI-62, placebo for SPI-62, or pregabalin (positive control) for 6 weeks. […] The trial was terminated. Descriptive analysis on parameters of glycemic control, blood lipids, blood pressure, and weight was conducted. […] As this was an exploratory analysis, statistical hypothesis tests were not performed.

[4] = elderly non-Japanese subjects, 20 mg, Day 1 single dose, 24 h urine
[5] = elderly non-Japanese subjects, 20 mg, Day 18 after daily doses Days 5 through 18, 24 h urine
[6] = healthy adult Japanese subjects, 10 mg, Day 1 single dose, 24 h urine
[7] = healthy adult Japanese subjects, 10 mg, Day 18 after daily doses Days 5 through 18, 24 h urine
[8] = healthy adult Japanese subjects, 20 mg, Day 1 single dose, 24 h urine
[9] = healthy adult Japanese subjects, 20 mg, Day 18 after daily doses Days 5 through 18, 24 h urine
[10] = healthy adult Japanese subjects, 50 mg, Day 1 single dose, 24 h urine
[11] = healthy adult Japanese subjects, 50 mg, Day 18 after daily doses Days 5 through 18, 24 h urine
[12] = healthy adult non-Japanese subjects, 20 mg, Day 1 single dose, 24 h urine
[13] = healthy adult non-Japanese subjects, 20 mg, Day 18 after daily doses Days 5 through 18, 24 h urine
[14] = healthy adult non-Japanese subjects, 50 mg, Day 1 single dose, 24 h urine
[15] = healthy adult non-Japanese subjects, 50 mg, Day 18 after daily doses Days 5 through 18, 24 h urine
[16] = adults with painful diabetic peripheral neuropathy, 6 weeks treatment, descriptive analysis

## Cn1c(-c2ccc(C(N)=O)cc2F)nnc1C(C)(C)Oc1c(F)cc(Cl)cc1F [Compound A]
[1]; dose level 0.4 mg
  number of doses to achieve full HSD-1 inhibition: 9 to 11 doses
[1]; dose level 0.7 mg
  number of doses to achieve full HSD-1 inhibition: 5 to 6 doses
[1]; dose level 2 mg
  number of doses to achieve full HSD-1 inhibition: 2 doses
[1]; [4]
  HSD-1 ratio, Day 1 Mean: 0.17
  HSD-1 ratio, Day 1 Median: 0.16
[1]; [5]
  HSD-1 ratio, Day 18 Mean: 0.11
  HSD-1 ratio, Day 18 Median: 0.11
[1]; elderly non-Japanese subjects, 20 mg
  mean HSD-1 ratio (significantly decreased HSD-1 activity): approximately 0.1
[1]; [6]
  HSD-1 ratio (tetrahydrocortisol [5α + 5β]/tetrahydrocortisone), Day 1 Median: 0.19
  HSD-1 ratio (tetrahydrocortisol [5α + 5β]/tetrahydrocortisone), Day 1 mean: 0.18
[1]; [7]
  HSD-1 ratio (tetrahydrocortisol [5α + 5β]/tetrahydrocortisone), Day 18 Mean: 0.13
  HSD-1 ratio (tetrahydrocortisol [5α + 5β]/tetrahydrocortisone), Day 18 Median: 0.12
[1]; [8]
  HSD-1 ratio (tetrahydrocortisol [5α + 5β]/tetrahydrocortisone), Day 1 Median: 0.14
  HSD-1 ratio (tetrahydrocortisol [5α + 5β]/tetrahydrocortisone), Day 1 mean: 0.14
[1]; [9]
  HSD-1 ratio (tetrahydrocortisol [5α + 5β]/tetrahydrocortisone), Day 18 Mean: 0.09
  HSD-1 ratio (tetrahydrocortisol [5α + 5β]/tetrahydrocortisone), Day 18 Median: 0.10
[1]; [10]
  HSD-1 ratio (tetrahydrocortisol [5α + 5β]/tetrahydrocortisone), Day 1 Median: 0.14
  HSD-1 ratio (tetrahydrocortisol [5α + 5β]/tetrahydrocortisone), Day 1 mean: 0.14
[1]; [11]
  HSD-1 ratio (tetrahydrocortisol [5α + 5β]/tetrahydrocortisone), Day 18 Mean: 0.10
  HSD-1 ratio (tetrahydrocortisol [5α + 5β]/tetrahydrocortisone), Day 18 Median: 0.09
[1]; healthy adult Japanese subjects, doses of 10 mg, 20 mg and 50 mg
  mean HSD-1 ratio (significantly decreased HSD-1 activity): 0.1 to 0.2
[1]; healthy adult non-Japanese subjects, 2 mg, 0.7 mg, 0.4 mg and 0.2 mg cohorts, single dose Day 1 then daily doses
  HSD-1 activity (urinary ratio): significantly decreased
[1]; [12]
  HSD-1 ratio (tetrahydrocortisol [5α + 5β]/tetrahydrocortisone), Day 1 Median: 0.16
  HSD-1 ratio (tetrahydrocortisol [5α + 5β]/tetrahydrocortisone), Day 1 mean: 0.17
[1]; [13]
  HSD-1 ratio (tetrahydrocortisol [5α + 5β]/tetrahydrocortisone), Day 18 Mean: 0.12
  HSD-1 ratio (tetrahydrocortisol [5α + 5β]/tetrahydrocortisone), Day 18 Median: 0.12
[1]; [14]
  HSD-1 ratio (tetrahydrocortisol [5α + 5β]/tetrahydrocortisone), Day 1 Median: 0.16
  HSD-1 ratio (tetrahydrocortisol [5α + 5β]/tetrahydrocortisone), Day 1 mean: 0.16
[1]; [15]
  HSD-1 ratio (tetrahydrocortisol [5α + 5β]/tetrahydrocortisone), Day 18 Mean: 0.11
  HSD-1 ratio (tetrahydrocortisol [5α + 5β]/tetrahydrocortisone), Day 18 Median: 0.10
[1]; healthy adult non-Japanese subjects, doses of 20 mg and 50 mg
  mean HSD-1 ratio (significantly decreased HSD-1 activity): approximately 0.1
[1]; healthy adult subjects, fasted, single dose 6 mg
  inhibition (decrease of 5α-tetrahydrocortisol+5β-tetrahydrocortisol to urinary tetrahydrocortisone ratio compared to placebo): approximately 80%
[1]; healthy adult subjects, fasted, single dose above 6 mg
  level of inhibition of urinary HSD-1 ratio on increasing the dose: did not substantially increase the level of inhibition
[2]
  Y-maze novel arm exploration behavior (alternation rate) after corticosterone: restored a more normal behavior pattern
[3]; [16]
  Cholesterol: -0.48 ± 0.12 mM
  Diastolic BP (mm Hg): 0 ± 2 mm Hg
  HbA1c (%): −0.31 ± 0.11%
  Plasma glucose: 0.084 ± 0.38 mM
  Systolic BP (mm Hg): −1 ± 3 mm Hg
  Triglycerides: -0.11 ± 0.09 mM
  Urine glucose (% positive): −2.5 ± 3.0 % positive
  Weight: -0.3 ± 0.3 kg
[3]; exploratory descriptive analysis, no hypothesis tests
  trends compared to placebo on HbA1c, plasma glucose, urine glucose, cholesterol and triglycerides (not on systolic or diastolic blood pressure or weight): Favorable numeric trends
[3]; interim review after 150 subjects completed treatment
  pain relief compared to the placebo group: not any better
